Three compounds from ChEMBL document CHEMBL1155145, “Calcineurin inhibition or mutation enhances cell wall inhibitors against Aspergillus fumigatus” (2007) can be followed below.

The subject of assay [1] is Aspergillus fumigatus. Description: Antifungal activity against Aspergillus fumigatus assessed as induction of balloon-like of hyphal apical tips at 32 ug/ml after 48 hrs. The assay is classed as functional, organism-based.
Assay [2] deals with Aspergillus fumigatus. Description: Antifungal activity against Aspergillus fumigatus assessed as inhibition of hyphal growth at 1 ug/ml by radial growth assay. Format: functional, organism-based.
Assay [3] relates to Aspergillus fumigatus. Description: Antifungal activity against Aspergillus fumigatus expressing delta-cnaA mutant assessed as dead microbial cells at 1 ug/ml by trimethine oxonol staining. The assay is classed as functional.
Assay [4] deals with Aspergillus fumigatus. Put plainly: Decrease in 1,3-beta-D-glucan level in Aspergillus fumigatus assessed as relative fluorescence units at 1 ug/ml by aniline blue fluorescence assay. Format: functional.
The test system of assay [5] is Aspergillus fumigatus. Description: Decrease in 1,3-beta-D-glucan level in Aspergillus fumigatus expressing delta-cnaA mutant assessed as relative fluorescence units at 1 ug/ml by aniline blue fluorescence assay. Format: functional.
Assay [6] concerns Aspergillus fumigatus. Description: Antifungal activity against Aspergillus fumigatus assessed as induction of stunted hyphal tips at 20 ng/ml after 6 hrs. Format: functional, organism-based.
In assay [7] the test system is Aspergillus fumigatus. Description: Effect on cellular morphology of Aspergillus fumigatus assessed as induction hyphal tips blunting at 20 ng/ml. The assay is classed as functional, organism-based.
For assay [8], the system named is Aspergillus fumigatus. Put plainly: Antifungal activity against Aspergillus fumigatus ungerminated conidia assessed as delay in germ-tube extension at 20 ng/ml after 60 hrs of fungal growth. The assay is classed as functional, organism-based.
Assay [9] concerns Aspergillus fumigatus. Put plainly: Decrease in 1,3-beta-D-glucan level in Aspergillus fumigatus assessed as relative fluorescence units at 20 ng/ml by aniline blue fluorescence assay. Format: functional.
For assay [10], the system named is Aspergillus fumigatus. Description: Antifungal activity against Aspergillus fumigatus assessed as inhibition of hyphal growth at 20 ng/ml by radial growth assay. Format: functional, organism-based.
The subject of assay [11] is Aspergillus fumigatus. Description: Effect on cellular morphology of Aspergillus fumigatus expressing delta-cnaA mutant assessed as induction hyphal tips blunting at 20 ng/ml. Format: functional, organism-based.

Calls of active or inactive are those of the source. The calls are words filed in the database; no cut-off is given here.

With `C[C@@H]([C@H](N)C(=O)N[C@H](C(=O)O)[C@H]1O[C@@H](n2ccc(=O)[nH]c2=O)[C@H](O)[C@@H]1O)[C@H](O)c1ccc(O)cn1`, the result in the assay with Aspergillus fumigatus [1] was Active.

In the case of `CC[C@H](C)C[C@H](C)CCCCCCCCC(=O)N[C@H]1C[C@@H](O)[C@@H](NCCN)NC(=O)[C@@H]2[C@@H](O)CCN2C(=O)[C@H]([C@H](O)CCN)NC(=O)[C@H]([C@H](O)[C@@H](O)c2ccc(O)cc2)NC(=O)[C@@H]2C[C@@H](O)CN2C(=O)[C@H]([C@@H](C)O)NC1=O` [CASPOFUNGIN], the outcome with Aspergillus fumigatus [2] was Active. In the assay on Aspergillus fumigatus [3], the Activity was 15%. For the same compound, the RFU was determined as 6.187 in the assay on Aspergillus fumigatus [4] and 1.086 in the assay on Aspergillus fumigatus [5].

For the compound `C=CC[C@@H]1/C=C(\C)C[C@H](C)C[C@H](OC)[C@H]2O[C@@](O)(C(=O)C(=O)N3CCCC[C@H]3C(=O)O[C@H](/C(C)=C/[C@@H]3CC[C@@H](O)[C@H](OC)C3)[C@H](C)[C@@H](O)CC1=O)[C@H](C)C[C@@H]2OC` [TACROLIMUS ANHYDROUS], the Activity entry in the assay on Aspergillus fumigatus [6] and in the assay with Aspergillus fumigatus [8] was “Dose-dependent effect” each time. Moreover, the outcome in the assay on Aspergillus fumigatus [7], in the assay with Aspergillus fumigatus [10] and with Aspergillus fumigatus [11] was Active. Besides, the RFU in the assay on Aspergillus fumigatus [9] turned out to be 2.909.
